These results are taken from article PMC6181319, “Thermodynamic and computational analyses reveal the functional roles of the galloyl group of tea catechins in molecular recognition” (PLoS ONE, 2018).

Where two headings read alike, the source gives them in different places. Marks after values point to notes of the source that are not given here.

Data set [1] has as its target T1, human serum albumin (HSA) (Homo sapiens, UniProt P02768). The data set can be described thus: Isothermal titration calorimetry (ITC) of binding of catechins and analogs to HSA. Set-up: purchased Sigma-Aldrich Japan (Tokyo, Japan). As to conditions: for change of binding affinity with addition of 0.2 M NaCl: 0.2 M NaCl versus no NaCl. How it is done:
The binding of the catechins and its analogs to HSA was examined in a VP-ITC instrument (Microcal Northampton, MA). […] The data were analyzed with the Origin software (ver. 7) by means of a single-binding-site model. The thermodynamic parameters were obtained from three replicate titrations, where the dilution heats of the ligands were subtracted.
In general terms: ITC needs no label: the signal is the heat of the interaction.

Data set [2] concerns the target T1, human serum albumin (HSA). The data set can be described thus: Differential scanning calorimetry (DSC), thermal stability of HSA–ligand complexes. As to conditions: for Tm: DSC, HSA 50 μM, ligand 500 μM, 50 mM sodium phosphate pH 6.8, HSA alone 68.6 ± 0.1; for ΔTm at 500 µM: human, pH 6.8. Background: In DSC, transitions show as peaks or steps in heat flow.
Procedure: The thermal stabilities of HSA and the HSA–ligand complexes were determined by differential scanning calorimetry in a VP-DSC autosampler instrument (GE Healthcare). The cell was heated from 303 to 363 K at a rate of 1 K min^−1. The concentrations of HSA and the ligands were 50 and 500 μM, respectively, in a buffer composed of 50 mM sodium phosphate (pH 6.8). The data analysis was carried out with the Origin software (ver. 7) using a two-state model.
The mark [3] stands for this setting: Table 1, ITC, 298 K, 50 mM sodium phosphate pH 6.8.
Setting [4] is: Table 1, ITC, 298 K, 50 mM sodium phosphate pH 6.8, HSA 50 μM, single-binding-site model.
Where [5] appears, read: S1 Table, ITC binding affinity listed beside Tm, read-out: KD.
Setting [6] is: S2 Table, NaCl 0 M, read-out: KD.
Where [7] appears, read: S2 Table, NaCl 0.2 M, read-out: KD.
[8] abbreviates: Table 1, ITC, 298 K, 50 mM sodium phosphate pH 6.8, read-out: KD.
Setting [9] is: human serum albumin (HSA) 50 µM in buffer.
Where [10] appears, read: Table 2, methylated catechin derivatives, ITC, 298 K.
Setting [11] is: Table 2, methylated catechin derivatives, ITC, 298 K, 50 mM sodium phosphate pH 6.8.
[12] abbreviates: Table 2, methylated catechin derivatives, ITC, 298 K, 50 mM sodium phosphate pH 6.8, read-out: KD.

T1 sequence (P02768 25-609): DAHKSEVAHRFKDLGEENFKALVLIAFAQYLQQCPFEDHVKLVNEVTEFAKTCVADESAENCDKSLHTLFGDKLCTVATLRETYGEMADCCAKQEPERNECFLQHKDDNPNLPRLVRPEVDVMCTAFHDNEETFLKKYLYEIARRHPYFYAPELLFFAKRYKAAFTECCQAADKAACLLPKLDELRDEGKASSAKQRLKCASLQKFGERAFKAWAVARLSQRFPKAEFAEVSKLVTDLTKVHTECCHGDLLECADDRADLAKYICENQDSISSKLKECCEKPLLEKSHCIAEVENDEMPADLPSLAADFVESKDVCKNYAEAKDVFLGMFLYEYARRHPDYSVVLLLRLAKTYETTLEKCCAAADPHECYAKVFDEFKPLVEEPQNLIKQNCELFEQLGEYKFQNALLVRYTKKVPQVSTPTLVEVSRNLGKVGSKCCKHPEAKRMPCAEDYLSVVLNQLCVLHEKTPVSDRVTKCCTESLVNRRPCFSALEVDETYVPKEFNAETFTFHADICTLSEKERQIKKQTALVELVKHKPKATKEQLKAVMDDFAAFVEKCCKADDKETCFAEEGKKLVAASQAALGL

Compound `Oc1cc(O)c2c(c1)O[C@@H](c1cc(O)c(O)c(O)c1)[C@H](O)C2` [GC, (−)-gallocatechin] had a Kd in data set [1] (KD, S1 Table, ITC binding affinity listed beside Tm) of 52 ± 16 µM. In data set [1] (KD, Table 1, ITC, 298 K, 50 mM sodium phosphate pH 6.8), this compound had a Kd of 52 ± 16 µM. In data set [1] (Table 1, ITC, 298 K), this compound registered a ΔH/ΔG of 19%. Moreover, in data set [1] (setting [3]), the ΔG is -5.8 ± 0.2 kcal/mol, the ΔH is -1.1 ± 0.5 kcal/mol and the “−TΔS” value is -4.7 ± 0.7 kcal/mol. For the same compound, the “N (number of binding sites)” value in data set [1] (setting [4]) was 1.0 ^b. Also, in data set [2], the Tm came to 69.3 ± 0.3 °C and the ΔTm at 500 µM came to 0.7 °C.

On to `Oc1cc(O)c2c(c1)O[C@H](c1ccc(O)c(O)c1)[C@H](O)C2` [EC, (−)-epicatechin], for which, in data set [1] (ITC), the “change of binding affinity with addition of 0.2 M NaCl” value (from here on “change of binding affinity”) is “increased”. Also, the “thermodynamic profile of binding (enthalpy-driven or entropy-driven)” value (from here on “thermodynamic profile of binding”) in data set [1] (ITC, 298 K) is “entropy-driven”. The Kd in data set [1] (setting [5]) came out at 49 ± 18 µM; in data set [1] (setting [6]) it was 48.7 µM; in data set [1] (setting [7]), 0.7 µM; in data set [1] (setting [8]), 49 ± 18 µM. Also, the ΔH/ΔG in data set [1] (Table 1, ITC, 298 K) is 13%. The compound also displayed a ΔG in data set [1] (setting [3]) of -5.8 ± 0.2 kcal/mol. This compound had a ΔH in data set [1] (setting [3]) of -0.8 ± 0.2 kcal/mol. Also, the “−TΔS” value in data set [1] (setting [3]) is -5.1 ± 0.4 kcal/mol. Moreover, the “N (number of binding sites)” value in data set [1] (setting [4]) is given as 1.0 ^b. For the same compound, the Tm in data set [2] was 68.7 ± 0.3 °C. Further, the ΔTm at 500 µM in data set [2] (setting [9]) was 0 °C.

For `COc1cc(C(=O)O[C@@H]2Cc3c(O)cc(O)cc3O[C@@H]2c2cc(O)c(O)c(O)c2)cc(O)c1O` [EGCg-3′′-O-Me, (−)-epigallocatechin-3′′-O-methylether gallate], the N in data set [1] (S3 Table, temperature 288 K) is 1.1±0.1; in data set [1] (S3 Table, temperature 293 K), 1.0±0.1; in data set [1] (S3 Table, temperature 298 K) it was 1.0±0.1; in data set [1] (S3 Table, temperature 303 K), 1.1±0.1. Moreover, the ΔG in data set [1] (S3 Table, temperature 288 K) was -8.9 ± 0.1 kcal/mol; in data set [1] (S3 Table, temperature 293 K), -9.3 ± 0.1 kcal/mol; in data set [1] (S3 Table, temperature 298 K) it was -9.4 ± 0.1 kcal/mol; in data set [1] (S3 Table, temperature 303 K) it was -9.4 ± 0.2 kcal/mol; in data set [1] (setting [10]), -9.4 ± 0.1 kcal/mol. Moreover, the ΔH in data set [1] (S3 Table, temperature 288 K) is -5.7 ± 1.2 kcal/mol; in data set [1] (S3 Table, temperature 293 K) it was -6.9 ± 1.7 kcal/mol; in data set [1] (S3 Table, temperature 298 K) it was -7.4 ± 0.9 kcal/mol; in data set [1] (S3 Table, temperature 303 K) it was -8.7 ± 0.5 kcal/mol; in data set [1] (setting [10]) it was -7.9 ± 0.9 kcal/mol. For the same compound, the “−TΔS” value in data set [1] (S3 Table, temperature 288 K) is -3.2 ± 1.2 kcal/mol; in data set [1] (S3 Table, temperature 293 K) it was -2.4 ± 1.7 kcal/mol; in data set [1] (S3 Table, temperature 298 K), -1.9 ± 0.9 kcal/mol; in data set [1] (S3 Table, temperature 303 K), -0.7 ± 0.4 kcal/mol. Besides, the equilibrium dissociation constant (Kd) was 0.19 ± 0.04 µM in data set [1] (S3 Table, temperature 288 K, read-out: KD); 0.12 ± 0.02 µM in data set [1] (S3 Table, temperature 293 K, read-out: KD); 0.14 ± 0.02 µM in data set [1] (S3 Table, temperature 298 K, read-out: KD); 0.16 ± 0.04 µM in data set [1] (S3 Table, temperature 303 K, read-out: KD); 0.14 ± 0.02 µM in data set [1] (setting [12]); 0.2 µM in data set [1] (human, human serum albumin (HSA) 50 µM in buffer, pH 6.8, Table 2, methylated catechin derivatives, ITC, 298 K, 50 mM sodium phosphate pH 6.8, read-out: KD). In addition, the “N (number of binding sites)” value in data set [1] (setting [11]) worked out at 1.0 ± 0.1. Besides, in data set [1] (slope of ΔH versus temperature, 288 to 303 K), the “ΔCp (change in heat capacity)” value is reported as −195 cal mol^−1 K^−1.

For the compound `CCOC(=O)c1cc(O)c(O)c(O)c1` [EtGa, Ethyl gallate], the “change of binding affinity” value in data set [1] (ITC) is “increased”. In addition, in data set [1] (setting [6]), the Kd was determined as 45.7 µM. Besides, the Kd in data set [1] (setting [7]) worked out at 16.6 µM. This compound yielded a ΔH/ΔG in data set [1] (Table 1, ITC, 298 K) of 24%. For the same compound, in data set [1] (setting [3]), the ΔG is -5.9 ± 0.3 kcal/mol, the ΔH is -1.4 ± 0.1 kcal/mol and the “−TΔS” value was -4.5 ± 0.4 kcal/mol. For the same compound, the “N (number of binding sites)” value in data set [1] (setting [4]) is reported as 1.0 ^b. The Kd in data set [1] (setting [8]) turned out to be 46 ± 23 µM.

On to `O=C(O[C@@H]1Cc2c(O)cc(O)cc2O[C@@H]1c1ccc(O)c(O)c1)c1cc(O)c(O)c(O)c1` [ECg, (−)-epicatechin gallate], for which the “change of binding affinity” value in data set [1] (ITC) is “decreased”. For the same compound, in data set [1] (ITC, 298 K), the “thermodynamic profile of binding” value is on record as “enthalpy-driven”. The Kd in data set [1] (setting [5]) is 1.1 ± 0.1 µM. Further, the Kd in data set [1] (setting [7]) was found to be 3.7 µM. The same compound had a ΔH/ΔG in data set [1] (Table 1, ITC, 298 K) of 63%. In data set [1] (setting [3]), the ΔG was -8.1 ± 0.1 kcal/mol, the ΔH is -5.1 ± 0.5 kcal/mol and the “−TΔS” value is -3.1 ± 0.5 kcal/mol. Besides, the “N (number of binding sites)” value in data set [1] (setting [4]) was 1.0 ± 0.1. Moreover, the Kd in data set [1] (setting [8]) was 1.1 ± 0.1 µM. The Tm in data set [2] was found to be 72.2 ± 0.1 °C. The ΔTm at 500 µM in data set [2] (setting [9]) was determined as 3.5 °C.

On to `O=C(O[C@@H]1Cc2c(O)cc(O)cc2O[C@H]1c1cc(O)c(O)c(O)c1)c1cc(O)c(O)c(O)c1` [GCg, (−)-gallocatechin gallate], for which the “change of binding affinity” value in data set [1] (ITC) was “decreased”. In addition, the “thermodynamic profile of binding” value in data set [1] (ITC, 298 K) is reported as “entropy-driven”. For the same compound, the equilibrium dissociation constant (Kd) in data set [1] (setting [5]) came to 8.8 ± 3.4 µM; in data set [1] (setting [7]) it was 18.6 µM; in data set [1] (setting [8]), 8.8 ± 3.4 µM. Moreover, the ΔH/ΔG in data set [1] (Table 1, ITC, 298 K) stood at 43%. In data set [1] (setting [3]), the ΔG is -6.9 ± 0.2 kcal/mol. This compound also registered a ΔH in data set [1] (setting [3]) of -3.0 ± 0.1 kcal/mol. In addition, the “−TΔS” value in data set [1] (setting [3]) is -3.9 ± 0.3 kcal/mol. Also, the “N (number of binding sites)” value in data set [1] (setting [4]) was found to be 1.2 ± 0.2. For the same compound, the Tm in data set [2] is 73.3 ± 0.2 °C. For the same compound, the ΔTm at 500 µM in data set [2] (setting [9]) turned out to be 4.6 °C.

As to `O=C(O[C@@H]1Cc2c(O)cc(O)cc2O[C@H]1c1ccc(O)c(O)c1)c1cc(O)c(O)c(O)c1` [Cg, (−)-catechin gallate], the “thermodynamic profile of binding” value in data set [1] (ITC, 298 K) was “entropy-driven”. Besides, the Kd in data set [1] (setting [5]) was found to be 3.5 ± 0.5 µM. Further, the ΔH/ΔG in data set [1] (Table 1, ITC, 298 K) was 38%. In data set [1] (setting [3]), the ΔG was -7.4 ± 0.1 kcal/mol, the ΔH is -2.8 ± 0.6 kcal/mol and the “−TΔS” value is -4.6 ± 0.7 kcal/mol. Also, the “N (number of binding sites)” value in data set [1] (setting [4]) was found to be 1.0 ± 0.1. Moreover, in data set [1] (setting [8]), the equilibrium dissociation constant (Kd) was 3.5 ± 0.5 µM. The Tm in data set [2] came out at 71.7 ± 0.1 °C. Also, the ΔTm at 500 µM in data set [2] (setting [9]) was determined as 3.1 °C.

With `COc1c(O)cc([C@H]2Oc3cc(O)cc(O)c3C[C@H]2OC(=O)c2cc(O)c(O)c(O)c2)cc1O` [EGCg-4′-O-Me, (−)-epigallocatechin-4′-O-methylether gallate], in data set [1] (setting [10]), the ΔG is -7.9 ± 0.1 kcal/mol, the ΔH is -7.0 ± 0.1 kcal/mol and the “−TΔS” value was -0.8 ± 0.1 kcal/mol. The “N (number of binding sites)” value in data set [1] (setting [11]) was 0.9 ± 0.1. The Kd in data set [1] (setting [12]) worked out at 1.7 ± 0.1 µM.

Consider `COc1c(O)cc(C(=O)O[C@@H]2Cc3c(O)cc(O)cc3O[C@@H]2c2cc(O)c(O)c(O)c2)cc1O` [EGCg-4′′-O-Me, (−)-epigallocatechin-4′′-O-methylether gallate], for which, in data set [1] (setting [10]), the ΔG was -8.2 ± 0.1 kcal/mol, the ΔH was -9.8 ± 0.1 kcal/mol and the “−TΔS” value was 1.6 ± 0.1 kcal/mol. Besides, in data set [1] (setting [11]), the “N (number of binding sites)” value is on record as 1.0 ± 0.1. Also, in data set [1] (setting [12]), the Kd came to 1 ± 0.1 µM.

With `Oc1cc(O)c2c(c1)O[C@@H](c1ccc(O)c(O)c1)[C@H](O)C2` [C, (+)-catechin], in data set [1] (setting [5]), the Kd came to 5 ± 8.6 µM. In data set [1] (Table 1, ITC, 298 K), this compound yielded a ΔH/ΔG of 4%. In data set [1] (setting [3]), the ΔG is -7.1 ± 0.6 kcal/mol, the ΔH is -0.3 ± 0.1 kcal/mol and the “−TΔS” value is -6.8 ± 0.7 kcal/mol. Besides, in data set [1] (setting [4]), the “N (number of binding sites)” value came out at 1.0 ± 0.2. Also, the Kd in data set [1] (setting [8]) turned out to be 5 ± 8.6 µM. In data set [2], the Tm was 68.5 ± 0.1 °C. For the same compound, the ΔTm at 500 µM in data set [2] (setting [9]) is -0.1 °C.

`COc1cc([C@H]2Oc3cc(O)cc(O)c3C[C@H]2OC(=O)c2cc(O)c(O)c(O)c2)cc(O)c1O` [EGCg-3′-O-Me, (−)-Epigallocatechin-3′-O-methylether gallate]: in data set [1] (setting [10]), the ΔG was -7.9 ± 0.1 kcal/mol, the ΔH was -9.3 ± 0.4 kcal/mol and the “−TΔS” value was 1.4 ± 0.3 kcal/mol. In data set [1] (setting [11]), the “N (number of binding sites)” value is reported as 0.9 ± 0.1. Besides, in data set [1] (setting [12]), the dissociation constant Kd came out at 1.6 ± 0.2 µM.

As usually defined, the Kd is the free concentration of one partner at which half of the binding sites on the other are occupied at equilibrium, for simple one-to-one binding. By ΔTm is commonly meant the shift of the melting midpoint relative to a reference.
